Measured values published in ChEMBL document CHEMBL3885881, “DrugMatrix”.

Species: Rattus norvegicus
Experiment: DrugMatrix - Regimen: Daily Repeat
Format: toxicity, organism-based, Sprague-Dawley
Design: regimen Daily Repeat, gender Male, age 6-8 weeks
Conditions: in vivo, sc, route subcutaneous, […]; for ALANINE AMINOTRANSFERASE / ALKALINE PHOSPHATASE / ASPARTATE AMINOTRANSFERASE / BLOOD UREA NITROGEN / CARBON DIOXIDE / CHOLESTEROL / CREATINE PHOSPHOKINASE / CREATININE / GLUCOSE / LACTATE DEHYDROGENASE / LIPASE / PHOSPHORUS / POTASSIUM / TOTAL BILIRUBIN / TOTAL PROTEIN / URIC ACID / ALBUMIN / CHLORIDE: tissue Plasma
[1] = 0 mg/kg, 72 h, tissue Blood, dose level Control, time 3 day
[2] = 0 mg/kg, 72 h, dose level Control, time 3 day
[3] = 0 mg/kg, 120 h, tissue Blood, dose level Control, time 5 day
[4] = 0 mg/kg, 120 h, dose level Control, time 5 day
[5] = 10 mg/kg, 72 h, tissue Blood, dose level Low, time 3 day
[6] = 10 mg/kg, 72 h, dose level Low, time 3 day
[7] = 10 mg/kg, 120 h, tissue Blood, dose level Low, time 5 day
[8] = 10 mg/kg, 120 h, dose level Low, time 5 day
[9] = 100 mg/kg, 72 h, tissue Blood, dose level High, time 3 day
[10] = 100 mg/kg, 72 h, dose level High, time 3 day
[11] = 100 mg/kg, 120 h, tissue Blood, dose level High, time 5 day
[12] = 100 mg/kg, 120 h, dose level High, time 5 day

COBALT(II) ACETYLACETONATE
ABSOLUTE BASOPHIL [1]: 0 CELLS/uL
ABSOLUTE EOSINOPHIL [1]: 42.67 CELLS/uL
ABSOLUTE LYMPHOCYTE [1]: 10202 CELLS/uL
ABSOLUTE MONOCYTE [1]: 261.5 CELLS/uL
ABSOLUTE SEGMENTED NEUTROPHIL [1]: 2193.83 CELLS/uL
BASOPHIL [1]: 0%
EOSINOPHIL [1]: 0.33%
ERYTHROCYTE COUNT [1]: 5.63 x10E6/uL
HEMATOCRIT [1]: 35.35%
HEMOGLOBIN [1]: 13.07 G/DL
LEUKOCYTE COUNT [1]: 12.7 x10E3/uL
LYMPHOCYTE [1]: 81.17%
MEAN CORPUSCULAR HEMOGLOBIN [1]: 23.23 pg
MEAN CORPUSCULAR HEMOGLOBIN CONCENTRATION [1]: 36.97 G/DL
MONOCYTE [1]: 2%
NUCLEATED RED BLOOD CELLS [1]: 0 /100WBC
PLATELET COUNT [1]: 1180.33 x10E3/uL
ALANINE AMINOTRANSFERASE [2]: 48.67 u/L
ALKALINE PHOSPHATASE [2]: 360.67 u/L
ASPARTATE AMINOTRANSFERASE [2]: 85.5 u/L
BLOOD UREA NITROGEN [2]: 17.83 mg/dL
CARBON DIOXIDE [2]: 26.17 mmol/L
CHOLESTEROL [2]: 71 mg/dL
CREATINE PHOSPHOKINASE [2]: 515.17 u/L
CREATININE [2]: 0.22 mg/dL
GLUCOSE [2]: 192.5 mg/dL
LACTATE DEHYDROGENASE [2]: 214.67 u/L
LIPASE [2]: 8.5 u/L
PHOSPHORUS [2]: 12.95 mg/dL
POTASSIUM [2]: 6.39 MEQ/L
TOTAL BILIRUBIN [2]: 0.18 mg/dL
TOTAL PROTEIN [2]: 5.95 G/DL
ABSOLUTE BASOPHIL [3]: 0 CELLS/uL
ABSOLUTE EOSINOPHIL [3]: 188.5 CELLS/uL
ABSOLUTE LYMPHOCYTE [3]: 12360.83 CELLS/uL
ABSOLUTE MONOCYTE [3]: 64.33 CELLS/uL
ABSOLUTE SEGMENTED NEUTROPHIL [3]: 1986.33 CELLS/uL
BASOPHIL [3]: 0%
ERYTHROCYTE COUNT [3]: 5.52 x10E6/uL
HEMOGLOBIN [3]: 13.25 G/DL
LEUKOCYTE COUNT [3]: 14.6 x10E3/uL
LYMPHOCYTE [3]: 84.5%
MEAN CORPUSCULAR HEMOGLOBIN [3]: 24.05 pg
MEAN CORPUSCULAR HEMOGLOBIN CONCENTRATION [3]: 36.98 G/DL
MEAN CORPUSCULAR VOLUME [3]: 64.97 fL
MONOCYTE [3]: 0.5%
NEUTROPHIL [3]: 13.67%
NUCLEATED RED BLOOD CELLS [3]: 0 /100WBC
PLATELET COUNT [3]: 1297.83 x10E3/uL
ALANINE AMINOTRANSFERASE [4]: 51.17 u/L
ALKALINE PHOSPHATASE [4]: 393.17 u/L
ASPARTATE AMINOTRANSFERASE [4]: 111 u/L
BLOOD UREA NITROGEN [4]: 18.17 mg/dL
CARBON DIOXIDE [4]: 25 mmol/L
CHOLESTEROL [4]: 65.5 mg/dL
CREATINE PHOSPHOKINASE [4]: 911.5 u/L
CREATININE [4]: 0.21 mg/dL
GLUCOSE [4]: 183 mg/dL
LACTATE DEHYDROGENASE [4]: 189 u/L
LIPASE [4]: 8.33 u/L
PHOSPHORUS [4]: 12.78 mg/dL
POTASSIUM [4]: 6.05 MEQ/L
TOTAL BILIRUBIN [4]: 0.25 mg/dL
TOTAL PROTEIN [4]: 5.83 G/DL
URIC ACID [4]: 1.58 mg/dL
ABSOLUTE BASOPHIL [5]: 0 CELLS/uL
ABSOLUTE EOSINOPHIL [5]: 159.33 CELLS/uL
ABSOLUTE MONOCYTE [5]: 0 CELLS/uL
ABSOLUTE SEGMENTED NEUTROPHIL [5]: 812 CELLS/uL
BASOPHIL [5]: 0%
ERYTHROCYTE COUNT [5]: 5.08 x10E6/uL
HEMATOCRIT [5]: 32.57%
HEMOGLOBIN [5]: 12.17 G/DL
LEUKOCYTE COUNT [5]: 12.37 x10E3/uL
LYMPHOCYTE [5]: 92%
MEAN CORPUSCULAR HEMOGLOBIN [5]: 23.97 pg
MEAN CORPUSCULAR HEMOGLOBIN CONCENTRATION [5]: 37.37 G/DL
MONOCYTE [5]: 0%
NEUTROPHIL [5]: 6.67%
NUCLEATED RED BLOOD CELLS [5]: 0 /100WBC
PLATELET COUNT [5]: 1184.33 x10E3/uL
ALANINE AMINOTRANSFERASE [6]: 47.67 u/L
ALKALINE PHOSPHATASE [6]: 375.67 u/L
ASPARTATE AMINOTRANSFERASE [6]: 80 u/L
CARBON DIOXIDE [6]: 27 mmol/L
CHOLESTEROL [6]: 76 mg/dL
CREATINE PHOSPHOKINASE [6]: 254.67 u/L
CREATININE [6]: 0.19 mg/dL
GLUCOSE [6]: 171.67 mg/dL
LACTATE DEHYDROGENASE [6]: 104.33 u/L
LIPASE [6]: 8.33 u/L
PHOSPHORUS [6]: 11.6 mg/dL
TOTAL BILIRUBIN [6]: 0.13 mg/dL
TOTAL PROTEIN [6]: 5.73 G/DL
ABSOLUTE BASOPHIL [7]: 0 CELLS/uL
ABSOLUTE EOSINOPHIL [7]: 119 CELLS/uL
ABSOLUTE MONOCYTE [7]: 35.33 CELLS/uL
ABSOLUTE SEGMENTED NEUTROPHIL [7]: 1425 CELLS/uL
BASOPHIL [7]: 0%
EOSINOPHIL [7]: 1%
ERYTHROCYTE COUNT [7]: 5.83 x10E6/uL
HEMATOCRIT [7]: 36.63%
HEMOGLOBIN [7]: 13.67 G/DL
LEUKOCYTE COUNT [7]: 11.87 x10E3/uL
LYMPHOCYTE [7]: 86.67%
MEAN CORPUSCULAR HEMOGLOBIN [7]: 23.47 pg
MEAN CORPUSCULAR HEMOGLOBIN CONCENTRATION [7]: 37.3 G/DL
MONOCYTE [7]: 0.33%
NEUTROPHIL [7]: 12%
NUCLEATED RED BLOOD CELLS [7]: 0 /100WBC
PLATELET COUNT [7]: 1357.67 x10E3/uL
ALANINE AMINOTRANSFERASE [8]: 36.67 u/L
ALBUMIN [8]: 4.6 G/DL
ALKALINE PHOSPHATASE [8]: 390 u/L
ASPARTATE AMINOTRANSFERASE [8]: 87 u/L
BLOOD UREA NITROGEN [8]: 22 mg/dL
CARBON DIOXIDE [8]: 21.67 mmol/L
CHOLESTEROL [8]: 77 mg/dL
CREATINE PHOSPHOKINASE [8]: 460.67 u/L
CREATININE [8]: 0.24 mg/dL
GLUCOSE [8]: 176.67 mg/dL
LACTATE DEHYDROGENASE [8]: 122.67 u/L
PHOSPHORUS [8]: 13.67 mg/dL
POTASSIUM [8]: 6.74 MEQ/L
TOTAL BILIRUBIN [8]: 0.2 mg/dL
TOTAL PROTEIN [8]: 6.7 G/DL
URIC ACID [8]: 2.8 mg/dL
ABSOLUTE BASOPHIL [9]: 0 CELLS/uL
ABSOLUTE EOSINOPHIL [9]: 73 CELLS/uL
ABSOLUTE LYMPHOCYTE [9]: 8659.67 CELLS/uL
ABSOLUTE MONOCYTE [9]: 133.33 CELLS/uL
ABSOLUTE SEGMENTED NEUTROPHIL [9]: 2500.67 CELLS/uL
BASOPHIL [9]: 0%
EOSINOPHIL [9]: 0.67%
ERYTHROCYTE COUNT [9]: 5.76 x10E6/uL
HEMOGLOBIN [9]: 13.3 G/DL
LEUKOCYTE COUNT [9]: 11.37 x10E3/uL
LYMPHOCYTE [9]: 75.67%
MEAN CORPUSCULAR HEMOGLOBIN [9]: 23.1 pg
MEAN CORPUSCULAR HEMOGLOBIN CONCENTRATION [9]: 37.2 G/DL
MONOCYTE [9]: 1%
NEUTROPHIL [9]: 22.67%
NUCLEATED RED BLOOD CELLS [9]: 0 /100WBC
PLATELET COUNT [9]: 1207 x10E3/uL
ALANINE AMINOTRANSFERASE [10]: 57.33 u/L
ALKALINE PHOSPHATASE [10]: 376.67 u/L
ASPARTATE AMINOTRANSFERASE [10]: 106 u/L
BLOOD UREA NITROGEN [10]: 17.67 mg/dL
CARBON DIOXIDE [10]: 26.33 mmol/L
CHLORIDE [10]: 109 MEQ/L
CHOLESTEROL [10]: 52.33 mg/dL
CREATINE PHOSPHOKINASE [10]: 315 u/L
CREATININE [10]: 0.2 mg/dL
LACTATE DEHYDROGENASE [10]: 200 u/L
LIPASE [10]: 9 u/L
PHOSPHORUS [10]: 10.3 mg/dL
POTASSIUM [10]: 5.87 MEQ/L
TOTAL BILIRUBIN [10]: 0.2 mg/dL
TOTAL PROTEIN [10]: 6 G/DL
URIC ACID [10]: 0.97 mg/dL
ABSOLUTE BASOPHIL [11]: 0 CELLS/uL
ABSOLUTE EOSINOPHIL [11]: 235.33 CELLS/uL
ABSOLUTE LYMPHOCYTE [11]: 15696 CELLS/uL
ABSOLUTE SEGMENTED NEUTROPHIL [11]: 4063 CELLS/uL
BASOPHIL [11]: 0%
ERYTHROCYTE COUNT [11]: 5.59 x10E6/uL
HEMATOCRIT [11]: 34.73%
HEMOGLOBIN [11]: 13.17 G/DL
LEUKOCYTE COUNT [11]: 20.17 x10E3/uL
LYMPHOCYTE [11]: 77%
MEAN CORPUSCULAR HEMOGLOBIN [11]: 23.57 pg
MEAN CORPUSCULAR HEMOGLOBIN CONCENTRATION [11]: 37.9 G/DL
MONOCYTE [11]: 1%
NEUTROPHIL [11]: 20.67%
NUCLEATED RED BLOOD CELLS [11]: 0 /100WBC
PLATELET COUNT [11]: 1455 x10E3/uL
ALANINE AMINOTRANSFERASE [12]: 47.67 u/L
ALBUMIN [12]: 3.9 G/DL
ALKALINE PHOSPHATASE [12]: 334.67 u/L
ASPARTATE AMINOTRANSFERASE [12]: 110.33 u/L
BLOOD UREA NITROGEN [12]: 19 mg/dL
CARBON DIOXIDE [12]: 16 mmol/L
CHLORIDE [12]: 111.67 MEQ/L
CHOLESTEROL [12]: 47.67 mg/dL
CREATINE PHOSPHOKINASE [12]: 488.33 u/L
CREATININE [12]: 0.18 mg/dL
LACTATE DEHYDROGENASE [12]: 467.33 u/L
LIPASE [12]: 8.33 u/L
PHOSPHORUS [12]: 12.73 mg/dL
POTASSIUM [12]: 7.45 MEQ/L
TOTAL BILIRUBIN [12]: 0.23 mg/dL
TOTAL PROTEIN [12]: 6.1 G/DL
URIC ACID [12]: 3.1 mg/dL
